# Test results published in patent US20080275093A1, “Diuretic Compounds Comprising Heterocyclic Nitric Oxide Donor Groups, Compositions and Methods of Use” (NitroMed, Inc., priority 2004, published 2008).
row,melting point [°C],SMILES
1,182 to 183,"Cc1c(COC(=O)c2cc(S(N)(=O)=O)c(Cl)cc2NCc2ccco2)no[n+]1[O-] [Example 1, Benzoic acid, 5-(aminosulfonyl)-4-chloro-2-[(2-furanylmethyl)amino]-, (4-methyl-5-oxido-1,2,5-oxadiazol-3-yl)methyl ester]"
2,112 to 115,"Cc1c(COC(=O)COC(=O)c2cc(S(N)(=O)=O)c(Cl)cc2NCc2ccco2)no[n+]1[O-] [Example 2, Benzoic acid, 5-(aminosulfonyl)-4-chloro-2-[(2-furanylmethyl)amino]-, 2-[(4-methyl-5-oxido-1,2,5-oxadiazol-3-yl)methoxy]-2-oxoethyl ester]"
3,169 to 172,"Cc1c(COC(=O)c2cc(S(N)(=O)=O)c(Cl)cc2N)no[n+]1[O-] [Example 3, Benzoic acid, 2-amino-5-(aminosulfonyl)-4-chloro-, (4-methyl-5-oxido-1,2,5-oxadiazol-3-yl)methyl ester]"
